Measurements published in patent US20260174829A1, “METHODS OF REDUCING TYPE 2 CYTOKINE-MEDIATED INFLAMMATION USING NEUROMEDIN PEPTIDES” (Rutgers, The State University of New Jersey, priority 2018, published 2026).

How the values were obtained:
[1] = system: ILC2s; test: RNA sequencing of ILC2s cultured overnight with or without Nmb; format: cell-based, mouse; details: gene expression, NMB treated vs untreated ILC2s
Description: To gain further insight into how NMB might alter lymphocyte activation, ILC2s were sort-purified from the lungs of Nb-infected mice and cultured overnight with survival cytokines (IL-2, IL-7), with or without Nmb. Then, gene expression was evaluated by RNA sequencing analysis. […] This allowed for identification of NMB signaling pathways.

[2] = system: Nippostrongylus brasiliensis (Nb)-infected mice; test: Nmb treatment (i.t.) of Nippostrongylus brasiliensis-infected mice; format: in vivo, mouse
Description: FIGS. 6A-6E. […] (A), Nb-infected mice were treated with PBS or Nmb (i.t.) and ILC2s in the BAL were quantified. (B) Expression of IL-5 and IL-13 in the lungs of PBS or Nmb-treated mice was determined on day 7 post-Nb by Real-time PCR. (C) Eosinophils in the BAL were quantified and (D) worm burdens were determined on day 7 post-Nb infection. ILC2s were sort-purified from the lungs of control or baso-dep mice on day 7 post-Nb and cultured (O/N) with IL-2 and IL-7 in the presence or absence of Nmb and (E) IL-5 and IL-13 levels in culture supernatants were determined by ELISA. P values were determined by two-tailed Student's t-tests.
Methods for maintenance, recovery, infection and isolation of N. brasiliensis larvae were performed as previously described (Camberis et al., 2003, Animal model of Nippostrongylus brasiliensis and Heligmosomoides polygyrus. Current protocols in immunology/edited by John E. Coligan . . . [et al.] Chapter 19:Unit 19.12.). Mice were infected with ˜500 N. brasiliensis larvae by subcutaneous injection. For basophil depletion, WT and basophil-depleted mice were treated with 0.375 μg of diphtheria toxin i.p. every other day; mice were sacrificed 3-7 days post-N. brasiliensis infection. For neuromedin B treatment, mice were anesthetized and treated with 10 μg of neuromedin B (MP Biomedicals) dissolved in 50 μL of PBS administered via intratracheal instillation.
For BAL collection after necropsy, 5 mL of PBS were injected and aspirated from the trachea of each mouse, after collection the volume of BAL collected was recorded. Following BAL collection, lungs were collected at necropsy and single-cell suspensions for flow cytometric analysis were prepared as previously described (Jungblut et al., J Vis Exp 29:1266, 2009). Briefly, pulmonary tissue was minced and incubated in HBSS containing 2.5% of FBS, collagenase D (2 mg/mL, Roche) and DNAse I (80 U/mL, Roche) for 30 min at 37° C. Cell suspensions were filtered through a […] filter and analyzed by flow cytometry. Additionally sections of pulmonary tissue were collected for real-time PCR and histological analysis.
Cells were stained with monoclonal anti-mouse fluorescently conjugated antibodies: B220 (RA3-6B2), c-Kit (ACK2), CD3 (145-2C11), CD4 (GK1.5), CD5 (53-73), CD19 (1D3), NK1.1 (PK136), CD11b (MI/70), CD11c (N418), IgE (23G3), FcRI (MAR-1), CD49b (DX5), CD45 (30-F11), CD90 (5E10), CD127 (A7R34), F4/80 (BM8), γδTCR (eBioGL3), Siglec-F (E50-2440), LγδG (1A8), LγδC (AL-21), IL-5 (TRFK5), IL-13 (eBiol3A), Ter-119 (TER-119) from eBioscience or BD Biosciences. For intracellular staining, cells were incubated for 5 hours at 37° C. with Leukocyte Activation Cocktail, with BD GolgiPlug™ (BD Biosciences) following manufacturer's instructions. Basophils were analyzed as CD45^+CD3^−CD19^−FceR1^+CD49b^+. Eosinophils were analyzed as CD45^+CD11b^+Siglec-F^+CD11c^−. Neutrophils were analyzed as Live CD45^+CD11b^+LγδG^+. ILC2s were analyzed as CD45^+CD3^−CD19^−CD11b^−CD11c^−NK1.1^−B220^−CD5^−Ter-119^− γδ TCR^−CD90^+CD127^+IL-5^+IL-13^+. Samples were acquired on a BD Fortessa flow cytometer (BD Biosciences) and analyzed using Flowlo software (v10.0.5, Tree Star). Cell sorting was performed using a FACSAriaII (BD Bioscience).
RNA from sections of lung tissue was isolated by homogenization in TRIzol (Invitrogen) followed by phenol-chloroform extraction and isopropanol precipitation. cDNA was generated per standard protocol with Superscript reverse transcriptase (Invitrogen) and used as input for real-time PCR. Real-time data were analyzed using the ΔΔCT method using SYBR Green chemistry (Applied Biosystems) with β-actin serving as the endogenous housekeeping gene. All reactions were run on an ABI 7500 Fast Real-Time PCR System (Applied Biosystems). Samples were normalized to naïve controls.

[3] = Nmb i.t. vs PBS, day 7, Real-time PCR
[4] = Nmb i.t. vs PBS, day 7 post-infection

In the case of H2N-GNLWATGHFM-amide [Nmb], the “Fold change Gm10031” value [1] is reported as −6.203, the “Fold change Gm14288” value [1] is reported as −25.43 and the “Fold change Hgs_2” value [1] is reported as −1.893. The “Fold change Ighg1” value [1] was 253.6, the “Fold change Ighg2b” value [1] was 276 and the “Fold change Igkv1-135” value [1] was 47.49. For the same substance, the “Fold change Igkv8-28” value [1] was 43.8, the “Fold change Igkv17-127” value [1] was 800.9 and the “Fold change Il1b” value [1] was 3.263. The “Fold change Klra7” value [1] was −1.984, the “Fold change Ly6c2” value [1] was −2.369 and the “Fold change Mcpt2” value [1] was −11.86. For the same substance, the “Fold change Nkg7” value [1] was −1.895, the “Fold change P2rx7” value [1] was −2.149 and the “Fold change Serpinb2” value [1] was 5.696. The “Fold change Sprr2a2” value [1] was 37.85, the “Fold change Tsix” value [1] was 2.833 and the “Fold change Xist” value [1] was 3.077. For the same substance, the “IL-5 expression in the lungs” value [2, 3] was “reduced”, the “IL-13 expression in the lungs” value [2, 3] was “reduced” and the “ILC2 responses (ILC2s in the BAL)” value [2, 4] was “reduced”. The “eosinophilia (eosinophils in the BAL)” value [2, 4] was “reduced”, the infection-induced neutrophilia [2, 4] was “no effect” and the “worm clearance (worm burdens)” value ([2]; Nmb i.t. vs control mice, day 7 post-infection) was “failed to clear worms as efficiently as control mice”.
